Measured values as given in ChEMBL document CHEMBL3885861, “Open TG-GATES”.

Species on record: Rattus norvegicus
Assay: Open TG-GATES - Regimen: Single
Assay type: toxicity, organism-based, Sprague-Dawley
Parameters: regimen Single, gender Male, age 6 weeks
Settings: in vivo, po, 0 mg/kg, route gavage, dose level Control; for APTT / Bas / Eos / Fbg / Hb / Ht / Lym / MCH / MCHC / MCV / Mono / Neu / PT / Plat / RBC / Ret / WBC: tissue Blood; for KIDNEY_L / KIDNEY_R / KIDNEY_TOTAL: tissue Kidney; for LIVER: tissue Liver; for A/G / ALP / ALT / AST / BUN / CRE / Ca / Cl / DBIL / GLC / IP / K / LDH / Na / PL / RALB / TBIL / TC / TG / TP / gamma-GTP: tissue Plasma

O=C(O)c1ccccc1Nc1ccccc1 [FENAMIC ACID]
TERMINAL_BW (3 h): 209.2 g | APTT (3 h): 16.5 s | Bas (3 h): 0.4% | Eos (3 h): 1% | Fbg (3 h): 255.6 mg/dL | Hb (3 h): 13.1 g/dL | Ht (3 h): 39.6% | Lym (3 h): 73.4% | MCH (3 h): 20.8 pg | MCHC (3 h): 33% | MCV (3 h): 63.1 fL | Mono (3 h): 2% | Neu (3 h): 22.8% | PT (3 h): 14 s | Plat (3 h): 119.2 x10_4/uL | RBC (3 h): 627.8 x10_4/ul | Ret (3 h): 8.3% | WBC (3 h): 95.4 x10_2/uL | KIDNEY_L (3 h): 0.9 g | KIDNEY_R (3 h): 0.9 g | KIDNEY_TOTAL (3 h): 1.8 g | LIVER (3 h): 8.8 g | A/G (3 h): 0.9 | ALP (3 h): 1511 IU/L | ALT (3 h): 33.2 IU/L | AST (3 h): 75 IU/L | BUN (3 h): 9.2 mg/dL | CRE (3 h): 0.2 mg/dL | Ca (3 h): 10.9 mg/dL | Cl (3 h): 105.4 meq/L | DBIL (3 h): 0.008 mg/dL | GLC (3 h): 185.4 mg/dL | IP (3 h): 9 mg/dL | K (3 h): 4.2 meq/L | LDH (3 h): 75.4 IU/L | Na (3 h): 144 meq/L | PL (3 h): 132 mg/dL | RALB (3 h): 2.5 g/dL | TBIL (3 h): 0.05 mg/dL | TC (3 h): 69 mg/dL | TG (3 h): 77.6 mg/dL | TP (3 h): 5.4 g/dL | gamma-GTP (3 h): 1 IU/L | TERMINAL_BW (6 h): 204.2 g | APTT (6 h): 18.5 s | Bas (6 h): 0.4% | Eos (6 h): 0.8% | Fbg (6 h): 283.4 mg/dL | Hb (6 h): 13.2 g/dL | Ht (6 h): 39.8% | Lym (6 h): 76.4% | MCH (6 h): 20.7 pg | MCHC (6 h): 33.1% | MCV (6 h): 62.7 fL | Mono (6 h): 2.8% | Neu (6 h): 19.6% | PT (6 h): 13.9 s | Plat (6 h): 112.2 x10_4/uL | RBC (6 h): 634.4 x10_4/ul | Ret (6 h): 8.3% | WBC (6 h): 84.7 x10_2/uL | KIDNEY_L (6 h): 0.9 g | KIDNEY_R (6 h): 0.9 g | KIDNEY_TOTAL (6 h): 1.8 g | LIVER (6 h): 8.2 g | A/G (6 h): 0.9 | ALP (6 h): 1530.8 IU/L | ALT (6 h): 35 IU/L | AST (6 h): 77.4 IU/L | BUN (6 h): 7.8 mg/dL | CRE (6 h): 0.2 mg/dL | Ca (6 h): 11.1 mg/dL | Cl (6 h): 105 meq/L | DBIL (6 h): 0.004 mg/dL | GLC (6 h): 157.2 mg/dL | IP (6 h): 9.1 mg/dL | K (6 h): 4.1 meq/L | LDH (6 h): 79.6 IU/L | Na (6 h): 143 meq/L | PL (6 h): 136.8 mg/dL | RALB (6 h): 2.5 g/dL | TBIL (6 h): 0.054 mg/dL | TC (6 h): 75.6 mg/dL | TG (6 h): 56.2 mg/dL | TP (6 h): 5.4 g/dL | gamma-GTP (6 h): 1.2 IU/L | TERMINAL_BW (9 h): 204.4 g | APTT (9 h): 18.2 s | Bas (9 h): 0.6% | Eos (9 h): 1% | Fbg (9 h): 261.6 mg/dL | Hb (9 h): 13.3 g/dL | Ht (9 h): 40.4% | Lym (9 h): 75.4% | MCH (9 h): 20.5 pg | MCHC (9 h): 33.1% | MCV (9 h): 62.1 fL | Mono (9 h): 1.8% | Neu (9 h): 21.6% | PT (9 h): 14.3 s | Plat (9 h): 129.3 x10_4/uL | RBC (9 h): 650.4 x10_4/ul | Ret (9 h): 8.1% | WBC (9 h): 69 x10_2/uL | KIDNEY_L (9 h): 0.9 g | KIDNEY_R (9 h): 0.9 g | KIDNEY_TOTAL (9 h): 1.8 g | LIVER (9 h): 7.9 g | A/G (9 h): 0.9 | ALP (9 h): 1501.2 IU/L | ALT (9 h): 35 IU/L | AST (9 h): 77.6 IU/L | BUN (9 h): 9.2 mg/dL | CRE (9 h): 0.2 mg/dL | Ca (9 h): 10.8 mg/dL | Cl (9 h): 106 meq/L | DBIL (9 h): 0 mg/dL | GLC (9 h): 182.4 mg/dL | IP (9 h): 9.6 mg/dL | K (9 h): 3.9 meq/L | LDH (9 h): 70 IU/L | Na (9 h): 145 meq/L | PL (9 h): 130.6 mg/dL | RALB (9 h): 2.6 g/dL | TBIL (9 h): 0.05 mg/dL | TC (9 h): 72.8 mg/dL | TG (9 h): 39 mg/dL | TP (9 h): 5.5 g/dL | gamma-GTP (9 h): 1.2 IU/L | TERMINAL_BW (24 h): 218.8 g | APTT (24 h): 16.2 s | Bas (24 h): 0.8% | Eos (24 h): 1% | Fbg (24 h): 271 mg/dL | Hb (24 h): 13.5 g/dL | Ht (24 h): 40.9% | Lym (24 h): 80.6% | MCH (24 h): 20.9 pg | MCHC (24 h): 33% | MCV (24 h): 63.3 fL | Mono (24 h): 2% | Neu (24 h): 15.2% | PT (24 h): 14.4 s | Plat (24 h): 124.1 x10_4/uL | RBC (24 h): 646.8 x10_4/ul | Ret (24 h): 7% | WBC (24 h): 111.8 x10_2/uL | KIDNEY_L (24 h): 1 g | KIDNEY_R (24 h): 1 g | KIDNEY_TOTAL (24 h): 1.9 g | LIVER (24 h): 9.7 g | A/G (24 h): 0.9 | ALP (24 h): 1870.8 IU/L | ALT (24 h): 44.4 IU/L | AST (24 h): 73.8 IU/L | BUN (24 h): 13.4 mg/dL | CRE (24 h): 0.2 mg/dL | Ca (24 h): 11.2 mg/dL | Cl (24 h): 105.2 meq/L | DBIL (24 h): 0.008 mg/dL | GLC (24 h): 177.2 mg/dL | IP (24 h): 7.8 mg/dL | K (24 h): 4.2 meq/L | LDH (24 h): 85.4 IU/L | Na (24 h): 142.6 meq/L | PL (24 h): 148.4 mg/dL
